# Experimental data published in ChEMBL document CHEMBL1201862, “PubChem BioAssay data set” (2004).
# Activity calls are given as the source filed them.
# Key:
# Melanocortin receptor 4 = Melanocortin receptor 4 (Homo sapiens, UniProt P32245); type: functional, cell-based;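 further: Cell-based assay with luminescence read-out, confirmatory dose-response testing for agonist activity of biased ligands at MC4R; human U2OS cells with tagged receptor and beta-arrestin; potency of agonists that increase receptor coupling to beta-arrestin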
# Cytochrome P450 1A2 = target: T1, Cytochrome P450 1A2 (Homo sapiens, UniProt P05177);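 further: PubChem cytochrome P450 panel assay, CYP1A2 panel member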
# T1 sequence (P05177 whole entry): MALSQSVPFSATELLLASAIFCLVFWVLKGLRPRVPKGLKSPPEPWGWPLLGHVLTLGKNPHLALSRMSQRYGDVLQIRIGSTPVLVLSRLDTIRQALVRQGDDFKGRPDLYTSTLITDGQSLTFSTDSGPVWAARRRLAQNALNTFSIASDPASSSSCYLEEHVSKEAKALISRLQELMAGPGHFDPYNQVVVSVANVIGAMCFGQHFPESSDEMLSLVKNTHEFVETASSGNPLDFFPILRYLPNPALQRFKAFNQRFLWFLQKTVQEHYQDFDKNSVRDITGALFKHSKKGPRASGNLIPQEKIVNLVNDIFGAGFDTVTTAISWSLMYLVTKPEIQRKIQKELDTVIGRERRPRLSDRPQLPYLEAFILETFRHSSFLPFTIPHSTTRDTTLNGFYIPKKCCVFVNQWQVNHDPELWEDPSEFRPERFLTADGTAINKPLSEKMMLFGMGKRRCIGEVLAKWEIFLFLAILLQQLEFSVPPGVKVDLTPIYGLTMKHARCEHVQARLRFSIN
# [1] = target: T2, Corticotropin-releasing factor receptor 2/Corticotropin-releasing factor-binding protein (Homo sapiens, UniProt P24387+Q13324); test: Dose Response confirmation of uHTS hits for small molecule antagonists of the CRF-binding protein and CRF-R2 receptor complex.; type: functional; conditions: read-out: IC50_Mean
# T2 sequence (Q13324 whole entry): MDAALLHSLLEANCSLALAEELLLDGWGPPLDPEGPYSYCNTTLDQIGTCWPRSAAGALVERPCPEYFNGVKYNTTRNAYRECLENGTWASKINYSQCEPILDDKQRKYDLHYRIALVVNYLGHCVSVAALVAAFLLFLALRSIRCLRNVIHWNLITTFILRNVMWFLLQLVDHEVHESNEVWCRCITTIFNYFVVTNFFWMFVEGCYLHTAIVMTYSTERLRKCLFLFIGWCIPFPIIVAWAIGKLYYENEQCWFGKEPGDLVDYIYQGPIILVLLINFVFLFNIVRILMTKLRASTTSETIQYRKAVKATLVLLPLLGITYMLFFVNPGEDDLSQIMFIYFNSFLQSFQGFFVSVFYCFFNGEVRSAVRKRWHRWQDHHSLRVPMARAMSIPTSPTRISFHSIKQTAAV
# T2 sequence (P24387 whole entry): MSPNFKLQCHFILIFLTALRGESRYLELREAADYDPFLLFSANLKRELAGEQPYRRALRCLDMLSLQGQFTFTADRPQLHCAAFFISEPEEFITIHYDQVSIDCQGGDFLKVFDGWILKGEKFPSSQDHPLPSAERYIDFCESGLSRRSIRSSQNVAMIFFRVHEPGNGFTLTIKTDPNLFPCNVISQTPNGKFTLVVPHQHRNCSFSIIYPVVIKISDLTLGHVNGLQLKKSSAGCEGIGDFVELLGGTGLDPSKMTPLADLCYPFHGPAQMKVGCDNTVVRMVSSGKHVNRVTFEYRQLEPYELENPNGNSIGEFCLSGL
# Cytochrome P450 2D6 = Cytochrome P450 2D6 (Homo sapiens, UniProt P10635);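 further: CYP2D6 member of a cytochrome P450 panel assay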
# Cytochrome P450 3A4 = Cytochrome P450 3A4 (Homo sapiens, UniProt P08684);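 further: CYP3A4 tested as one member of a cytochrome P450 panel screen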
# [2] = blockers of CRF-binding protein–CRF-R2 complex – cell-based, uHTS hits, 384-well, dose response (AID 651639); type: functional, Homo sapiens; conditions: read-out: IC50_Mean
# [3] = target: T2, Corticotropin-releasing factor receptor 2/Corticotropin-releasing factor-binding protein; test: activators of CRF receptor 2 with binding protein – uHTS hits, confirmation (AID 602473); type: functional; conditions: read-out: EC50_Mean
# HEK293 [4] = test: NOD2 signaling inhibitors in MDP-stimulated cells, cell-based, uHTS, luminescence (AID 2001); type: functional; conditions: Homo sapiens
# HEK293 [5] = test: cells; type: functional, cell-based; conditions: Homo sapiens
# HEK293 [6] = test: inhibition of NOD1-driven NF-kB reporter – cell-based, luminescence, uHTS, primary screen (AID 1578); type: functional; conditions: Homo sapiens
# Phospholipase A2 = Phospholipase A2 (Homo sapiens, UniProt P04054); type: functional;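 further: confirmatory dose-response counterscreen on phospholipase A2, testing hits that came from an ultra-high-throughput screen for ATG4B inhibitors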
# [7] = target: Induced myeloid leukemia cell differentiation protein Mcl-1 (Homo sapiens, UniProt Q07820); type: functional
# Cysteine protease ATG4B = target: T3, Cysteine protease ATG4B (Homo sapiens, UniProt Q9Y4P1); type: functional;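 further: Fluorescence-based dose-response confirmation assay measuring inhibition of ATG4B activity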
# T3 sequence (Q9Y4P1 whole entry): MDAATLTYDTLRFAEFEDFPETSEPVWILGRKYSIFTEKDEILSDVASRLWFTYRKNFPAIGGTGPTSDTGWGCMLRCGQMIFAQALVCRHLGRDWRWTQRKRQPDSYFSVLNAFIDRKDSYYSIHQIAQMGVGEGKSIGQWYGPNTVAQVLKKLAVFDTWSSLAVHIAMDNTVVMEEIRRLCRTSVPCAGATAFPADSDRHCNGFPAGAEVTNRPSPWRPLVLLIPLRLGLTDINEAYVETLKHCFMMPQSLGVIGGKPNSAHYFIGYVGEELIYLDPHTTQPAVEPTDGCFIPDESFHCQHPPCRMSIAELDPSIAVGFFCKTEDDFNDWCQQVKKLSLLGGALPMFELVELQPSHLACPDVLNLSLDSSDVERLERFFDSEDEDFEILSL
# Genome polyprotein = Genome polyprotein (dengue virus type 2, UniProt P29990); test: flavivirus cap methylation enzyme inhibition – biochemical, confirmation dose response, primary screen (AID 588689); type: functional
# HEK293 [8] = test: cells; type: functional, cell-based; conditions: Homo sapiens; remark: listed apart in the source
# [9] = target: Dual specificity tyrosine-phosphorylation-regulated kinase 1A (Rattus norvegicus, UniProt Q63470); type: biochemical, Homo sapiens
# [10] = target: T4, Polyadenylate-binding protein 1 (Homo sapiens, UniProt P11940); test: MLLE binding blockers, Cy5 peptide tracer – biochemical, fluorescence polarization, Cy5-PAM2 peptide, secondary, miRNA deadenylation inhibitor project, dose response (AID 602260); type: functional; conditions: read-out: IC50_Mean
# [11] = target: T4, Polyadenylate-binding protein 1; test: MLLE domain peptide-binding blockers, IC50 – biochemical, fluorescence polarization, FITC-PAM2 peptide, dose response (AID 602259); type: functional; conditions: read-out: IC50_Mean
# Prothrombin = Prothrombin (Bos taurus, UniProt P00735); test: thrombin protease inhibitors – biochemical, fluorescence polarization, uHTS hits, dose response (AID 602369); type: functional
# [12] = target: 72 kDa type IV collagenase (Homo sapiens, UniProt P08253); test: Dose Response validation of uHTS RPN11 inhibitor hits using a MMP-2 Fluorescence assay.; type: functional
# [13] = target: 26S proteasome non-ATPase regulatory subunit 14 (Homo sapiens, UniProt O00487); test: inhibition of proteasome subunit RPN11 – biochemical, fluorescence polarization, uHTS hits, confirmation (AID 602368); type: functional
# [14] = target: T5, Probable nicotinate-nucleotide adenylyltransferase (Staphylococcus aureus (strain N315), UniProt P65502); type: functional, Staphylococcus aureus subsp. aureus N315;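 on IC50 Mean: confirmatory dose-response retesting of NadD inhibitor hits first found in an ultra-high-throughput screen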
# [15] = target: T5, Probable nicotinate-nucleotide adenylyltransferase; type: functional, Staphylococcus aureus subsp. aureus N315; conditions: read-out: IC50_Mean
# [16] = Luminescence Cell-Based Dose Confirmation HTS to Identify Inhibitors of Platelet Dense Granule Release. [Related pubchem assays: 1663 (Primary HTS), 1678 (Summary of Project)]; type: functional
# [17] = target: Luciferin 4-monooxygenase (Photinus pyralis, UniProt P08659); test: inhibition of purified Photinus pyralis luciferase – biochemical, luminescence, dose response (AID 1891)
# [18] = target: T6, Zinc finger protein mex-5 (Caenorhabditis elegans, UniProt Q9XUB2); test: potency of MEX-5 RNA-binding blockers – biochemical, C. elegans, fluorescence polarization, dose response (AID 1960)
# T6 sequence (Q9XUB2 whole entry): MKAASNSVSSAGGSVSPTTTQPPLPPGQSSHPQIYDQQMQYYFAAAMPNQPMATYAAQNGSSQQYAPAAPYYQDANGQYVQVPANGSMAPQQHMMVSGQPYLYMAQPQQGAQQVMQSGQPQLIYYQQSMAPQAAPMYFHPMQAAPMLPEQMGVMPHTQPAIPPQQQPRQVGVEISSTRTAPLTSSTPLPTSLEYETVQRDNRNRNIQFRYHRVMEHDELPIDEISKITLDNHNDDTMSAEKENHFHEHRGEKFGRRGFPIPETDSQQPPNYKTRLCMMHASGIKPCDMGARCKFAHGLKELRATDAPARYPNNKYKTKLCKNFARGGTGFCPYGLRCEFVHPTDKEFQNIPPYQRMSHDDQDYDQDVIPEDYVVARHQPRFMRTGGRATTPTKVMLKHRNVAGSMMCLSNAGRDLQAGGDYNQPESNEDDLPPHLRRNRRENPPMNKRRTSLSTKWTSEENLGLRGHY
# [19] = target: T7, RNA-binding protein pos-1 (Caenorhabditis elegans, UniProt G5EF15); test: disruptors of C. elegans POS-1 RNA interaction – biochemical, fluorescence polarization, dose response (AID 1964);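 further: purified POS-1 fused to maltose binding protein made in E. coli; potency of compounds blocking POS-1 binding to fluorescent RNA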
# T7 sequence (G5EF15 whole entry): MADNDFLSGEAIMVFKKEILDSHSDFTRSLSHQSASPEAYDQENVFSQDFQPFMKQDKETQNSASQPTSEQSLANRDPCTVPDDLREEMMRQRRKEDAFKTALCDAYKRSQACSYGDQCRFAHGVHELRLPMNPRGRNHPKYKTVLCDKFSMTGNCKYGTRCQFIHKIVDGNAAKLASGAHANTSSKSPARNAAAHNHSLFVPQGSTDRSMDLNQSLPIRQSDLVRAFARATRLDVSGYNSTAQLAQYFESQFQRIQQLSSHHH
# Cytochrome P450 2C9 = Cytochrome P450 2C9 (Homo sapiens, UniProt P11712)
# Sequence of Cytochrome P450 2C9 (P11712 whole entry): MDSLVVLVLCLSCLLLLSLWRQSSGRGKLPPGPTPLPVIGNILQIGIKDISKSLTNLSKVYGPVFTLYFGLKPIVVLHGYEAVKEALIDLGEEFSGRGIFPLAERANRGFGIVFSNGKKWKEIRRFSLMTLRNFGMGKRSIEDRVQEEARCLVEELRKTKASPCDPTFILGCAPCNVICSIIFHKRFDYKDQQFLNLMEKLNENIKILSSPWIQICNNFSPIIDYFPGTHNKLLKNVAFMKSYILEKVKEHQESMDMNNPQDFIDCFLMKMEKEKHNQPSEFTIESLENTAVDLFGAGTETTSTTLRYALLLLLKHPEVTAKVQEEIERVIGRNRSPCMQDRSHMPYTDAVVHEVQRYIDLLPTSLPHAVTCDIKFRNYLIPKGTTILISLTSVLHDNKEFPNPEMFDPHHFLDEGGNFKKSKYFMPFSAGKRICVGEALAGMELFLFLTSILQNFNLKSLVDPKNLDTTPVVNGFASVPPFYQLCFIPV
# T5 sequence (P65502 whole entry): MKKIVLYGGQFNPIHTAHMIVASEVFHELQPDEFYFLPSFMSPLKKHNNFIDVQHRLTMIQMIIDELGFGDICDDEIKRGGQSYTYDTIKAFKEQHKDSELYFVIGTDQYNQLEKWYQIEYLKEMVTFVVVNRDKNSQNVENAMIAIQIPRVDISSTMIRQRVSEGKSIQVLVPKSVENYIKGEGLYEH
# Sequence of Melanocortin receptor 4 (P32245 whole entry): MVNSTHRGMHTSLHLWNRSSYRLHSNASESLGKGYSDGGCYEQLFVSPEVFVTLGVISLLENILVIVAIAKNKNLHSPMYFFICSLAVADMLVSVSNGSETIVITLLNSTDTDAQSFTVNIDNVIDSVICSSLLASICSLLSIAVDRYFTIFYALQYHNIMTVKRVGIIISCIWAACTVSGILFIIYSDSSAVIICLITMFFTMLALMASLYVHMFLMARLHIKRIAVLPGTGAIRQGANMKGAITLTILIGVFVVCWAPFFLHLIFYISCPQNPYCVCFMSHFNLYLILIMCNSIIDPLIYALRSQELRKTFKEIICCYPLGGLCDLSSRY
# T4 sequence (P11940 whole entry, the tested form may be a part): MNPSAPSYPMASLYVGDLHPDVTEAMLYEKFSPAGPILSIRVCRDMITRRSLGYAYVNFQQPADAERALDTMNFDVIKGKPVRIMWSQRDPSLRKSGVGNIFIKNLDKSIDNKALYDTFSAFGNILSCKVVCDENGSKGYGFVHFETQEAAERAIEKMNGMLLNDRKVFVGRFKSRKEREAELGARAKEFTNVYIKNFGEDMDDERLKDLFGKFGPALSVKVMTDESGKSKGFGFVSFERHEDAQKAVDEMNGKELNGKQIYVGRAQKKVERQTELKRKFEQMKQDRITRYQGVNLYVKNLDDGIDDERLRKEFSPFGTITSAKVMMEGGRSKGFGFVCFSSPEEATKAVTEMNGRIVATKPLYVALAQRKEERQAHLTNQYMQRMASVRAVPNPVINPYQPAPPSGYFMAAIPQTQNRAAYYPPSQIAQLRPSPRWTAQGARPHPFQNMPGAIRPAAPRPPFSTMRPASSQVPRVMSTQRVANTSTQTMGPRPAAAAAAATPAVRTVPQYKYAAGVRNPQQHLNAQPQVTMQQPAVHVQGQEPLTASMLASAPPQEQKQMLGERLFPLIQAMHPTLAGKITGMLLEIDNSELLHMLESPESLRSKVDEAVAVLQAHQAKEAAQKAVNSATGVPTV
# Sequence of Genome polyprotein (P29990 2492-3391 limits assumed): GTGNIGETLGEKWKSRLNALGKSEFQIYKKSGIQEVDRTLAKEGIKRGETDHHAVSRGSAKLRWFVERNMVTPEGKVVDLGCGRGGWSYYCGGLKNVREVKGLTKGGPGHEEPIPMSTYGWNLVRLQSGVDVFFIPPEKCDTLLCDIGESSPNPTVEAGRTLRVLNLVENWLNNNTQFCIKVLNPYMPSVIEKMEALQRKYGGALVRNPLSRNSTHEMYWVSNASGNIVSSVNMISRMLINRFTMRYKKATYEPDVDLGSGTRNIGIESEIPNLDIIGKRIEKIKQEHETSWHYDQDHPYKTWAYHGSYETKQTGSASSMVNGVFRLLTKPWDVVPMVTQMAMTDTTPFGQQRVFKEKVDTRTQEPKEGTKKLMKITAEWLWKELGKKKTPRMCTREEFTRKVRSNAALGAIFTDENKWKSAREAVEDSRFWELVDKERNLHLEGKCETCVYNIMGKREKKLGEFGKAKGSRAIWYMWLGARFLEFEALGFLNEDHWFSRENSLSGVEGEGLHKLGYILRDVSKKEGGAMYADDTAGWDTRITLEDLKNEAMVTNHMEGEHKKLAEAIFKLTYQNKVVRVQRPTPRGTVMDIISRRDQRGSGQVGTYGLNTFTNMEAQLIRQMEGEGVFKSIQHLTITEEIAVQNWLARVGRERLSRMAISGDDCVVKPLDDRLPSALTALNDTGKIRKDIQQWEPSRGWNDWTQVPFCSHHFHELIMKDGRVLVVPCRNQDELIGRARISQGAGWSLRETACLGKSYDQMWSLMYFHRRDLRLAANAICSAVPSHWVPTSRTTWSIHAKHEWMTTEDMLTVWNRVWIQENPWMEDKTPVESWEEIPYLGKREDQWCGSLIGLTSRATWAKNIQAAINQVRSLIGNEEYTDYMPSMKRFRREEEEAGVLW
# Sequence of 72 kDa type IV collagenase (P08253 whole entry): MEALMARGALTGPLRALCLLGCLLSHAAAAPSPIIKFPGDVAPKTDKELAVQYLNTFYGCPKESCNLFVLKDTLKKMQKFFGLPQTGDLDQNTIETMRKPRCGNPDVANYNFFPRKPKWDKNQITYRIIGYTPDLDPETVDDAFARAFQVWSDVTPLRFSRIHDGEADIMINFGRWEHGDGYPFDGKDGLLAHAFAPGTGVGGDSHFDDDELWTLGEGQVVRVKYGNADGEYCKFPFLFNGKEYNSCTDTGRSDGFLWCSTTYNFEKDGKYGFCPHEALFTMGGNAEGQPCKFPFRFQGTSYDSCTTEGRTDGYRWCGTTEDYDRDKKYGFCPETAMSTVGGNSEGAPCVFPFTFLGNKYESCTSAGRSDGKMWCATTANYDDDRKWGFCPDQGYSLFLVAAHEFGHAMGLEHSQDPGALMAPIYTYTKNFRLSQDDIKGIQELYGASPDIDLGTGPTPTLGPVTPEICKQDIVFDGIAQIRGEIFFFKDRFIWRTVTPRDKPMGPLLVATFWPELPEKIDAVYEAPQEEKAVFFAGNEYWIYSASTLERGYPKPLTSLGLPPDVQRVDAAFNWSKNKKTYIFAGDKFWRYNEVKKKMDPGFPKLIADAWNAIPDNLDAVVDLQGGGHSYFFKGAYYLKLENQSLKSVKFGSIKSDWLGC
# Sequence of 26S proteasome non-ATPase regulatory subunit 14 (O00487 whole entry): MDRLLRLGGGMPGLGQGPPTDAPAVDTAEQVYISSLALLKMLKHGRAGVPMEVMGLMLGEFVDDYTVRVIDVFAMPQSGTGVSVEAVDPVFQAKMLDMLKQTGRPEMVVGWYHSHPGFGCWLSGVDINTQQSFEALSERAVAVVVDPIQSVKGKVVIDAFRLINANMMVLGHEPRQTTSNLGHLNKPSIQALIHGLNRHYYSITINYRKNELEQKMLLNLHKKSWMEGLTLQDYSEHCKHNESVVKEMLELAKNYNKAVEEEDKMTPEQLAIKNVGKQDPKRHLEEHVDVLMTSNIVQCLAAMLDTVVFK
# Sequence of Phospholipase A2 (P04054 whole entry): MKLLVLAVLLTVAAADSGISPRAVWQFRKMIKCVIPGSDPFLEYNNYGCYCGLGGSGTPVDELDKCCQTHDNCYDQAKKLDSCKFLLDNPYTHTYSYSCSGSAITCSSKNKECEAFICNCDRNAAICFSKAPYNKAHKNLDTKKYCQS
# Sequence of Cytochrome P450 2D6 (P10635 whole entry): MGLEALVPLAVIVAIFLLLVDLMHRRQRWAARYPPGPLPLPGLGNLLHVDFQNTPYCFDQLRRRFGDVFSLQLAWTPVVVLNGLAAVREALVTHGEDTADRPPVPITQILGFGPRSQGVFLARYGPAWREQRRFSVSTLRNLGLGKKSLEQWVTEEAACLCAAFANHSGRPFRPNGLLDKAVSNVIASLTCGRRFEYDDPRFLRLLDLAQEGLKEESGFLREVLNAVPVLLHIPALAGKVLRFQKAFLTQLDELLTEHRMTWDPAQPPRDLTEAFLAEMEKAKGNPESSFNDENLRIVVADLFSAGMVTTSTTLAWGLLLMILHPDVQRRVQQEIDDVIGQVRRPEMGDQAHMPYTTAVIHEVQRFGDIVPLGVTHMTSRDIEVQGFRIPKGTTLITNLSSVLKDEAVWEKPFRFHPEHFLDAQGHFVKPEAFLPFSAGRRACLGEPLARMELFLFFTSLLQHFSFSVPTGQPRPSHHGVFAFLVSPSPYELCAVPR
# Sequence of Luciferin 4-monooxygenase (P08659 whole entry): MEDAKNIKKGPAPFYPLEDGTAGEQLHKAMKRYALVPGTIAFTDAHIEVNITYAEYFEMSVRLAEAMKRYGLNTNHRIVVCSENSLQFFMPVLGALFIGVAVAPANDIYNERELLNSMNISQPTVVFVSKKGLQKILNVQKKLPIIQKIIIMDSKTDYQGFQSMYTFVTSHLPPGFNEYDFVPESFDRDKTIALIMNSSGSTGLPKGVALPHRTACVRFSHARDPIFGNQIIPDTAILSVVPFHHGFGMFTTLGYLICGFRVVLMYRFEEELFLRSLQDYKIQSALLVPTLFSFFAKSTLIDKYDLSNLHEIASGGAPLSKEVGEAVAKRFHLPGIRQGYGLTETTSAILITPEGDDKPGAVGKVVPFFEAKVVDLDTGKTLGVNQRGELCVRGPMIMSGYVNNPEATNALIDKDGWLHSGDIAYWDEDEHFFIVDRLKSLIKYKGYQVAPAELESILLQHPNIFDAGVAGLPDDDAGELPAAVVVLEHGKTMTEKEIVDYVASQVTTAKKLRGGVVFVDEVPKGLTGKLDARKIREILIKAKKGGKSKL
compound,measurement,setting,value
Cc1cc(C)c(CN2CCN(CCCn3cnc(C(=O)Nc4ccc(C)c(C)c4)n3)CC2)c(C)c1,EC50,Melanocortin receptor 4,> 89.2 µM (inactive)
O=C1CC(c2cccc(F)c2)SC(N(c2ccccc2)c2ccccc2)=N1 (configuration not stated),AC50,Cytochrome P450 1A2,8.91 µM (inconclusive)
same,IC50,[1],9.86 µM (active)
same,AC50,Cytochrome P450 2D6,25.1 µM (inconclusive)
same,AC50,Cytochrome P450 3A4,17.8 µM (inconclusive)
same,IC50,[2],16 µM (active)
same,EC50,[3],> 53 µM (inactive)
CCOc1ccc(NC(=O)CSc2nc(-c3cccs3)cc(C(F)(F)F)n2)c([N+](=O)[O-])c1,EC50,Melanocortin receptor 4,> 89.2 µM (inactive)
O=C(NC(c1ccc(Cl)cc1)c1cccnc1)C1CCN(CCOc2ccc(Cl)cc2Cl)CC1 (configuration not stated),EC50,Melanocortin receptor 4,> 89.2 µM (inactive)
CC(/C=C1\SC(=S)N(c2ccc(C(=O)O)cc2)C1=O)=C\c1ccccc1,IC50,HEK293 [4],5.93 µM (active)
same,IC50,HEK293 [5],4.09 µM (active)
same,EC50,HEK293 [6],8.26 µM (active)
same,IC50,Phospholipase A2,1.88 µM (active)
same,IC50,[7],3.09 µM (active)
same,IC50,Cysteine protease ATG4B,5.25 µM (active)
same,IC50,Genome polyprotein,33.7 µM (active)
same,IC50,HEK293 [8],> 20 µM (inactive)
Cc1ccc(OC(=O)N(C)C[C@@H]2OCc3cnnn3CCCC(=O)N([C@@H](C)CO)C[C@@H]2C)cc1,IC50,[1],< 0.368 µM (active)
same,IC50,[2],> 20 µM (inactive)
same,EC50,[3],> 53 µM (inactive)
COC(=O)C1=C(C(=O)OC)C(c2cc(Br)ccc2O)c2sc(O)nc2S1 (configuration not stated),AC50,[9],24.6 µM (active)
same,IC50,Genome polyprotein,81.6 µM (active)
same,IC50,[10],> 66 µM (inactive)
same,IC50,[11],> 66 µM (inactive)
O=C(CCN1C(=O)NC2(CCCC2)C1=O)Nc1ccc(-c2nc3ccccc3s2)cc1,IC50,Prothrombin,19.5 µM (active)
same,IC50,[12],> 100 µM (inactive)
same,IC50,[13],19.3 µM (active)
COc1ccc(Br)cc1CNC(=O)CN1C(=O)C(c2ccccc2)Oc2cccnc21 (configuration not stated),IC50,[14],14.3 µM (active)
same,IC50,[15],31.6 µM (active)
CCCCOc1ccccc1C1C(C(=O)OC)=CN(CC)C=C1C(=O)OC,EC50,[16],> 112 µM (not active)
same,IC50,[1],3.74 µM (active)
same,EC50,[17],> 112 µM (not active)
same,IC50,[2],16 µM (active)
same,EC50,[3],> 53 µM (inactive)
COc1ccccc1N1C(=O)S/C(=C\c2ccc(C)s2)C1=O,IC50,Prothrombin,36.3 µM (active)
same,EC50,[18],10.1 µM (inconclusive)
same,IC50,[12],> 100 µM (inactive)
same,IC50,[13],23.5 µM (active)
same,EC50,[19],> 300 µM (not active)
O=C(CC1N=C2c3ccccc3N=C(SCc3ccc(Cl)cc3)N2C1=O)NCc1ccco1 (configuration not stated),IC50,[14],7.43 µM (active)
same,IC50,[15],23.6 µM (active)
Cc1ccccc1S(=O)(=O)Nc1nc2ccccc2nc1N1CCc2ccccc2C1,IC50,Phospholipase A2,16.8 µM (active)
same,IC50,Cysteine protease ATG4B,29.9 µM (inactive)
COc1ccc(C(C(=O)NC2CCCCC2)N(C(=O)c2sc(C)nc2C)c2ccc(OC)cc2)cc1 (configuration not stated),IC50,[1],8.51 µM (active)
same,AC50,Cytochrome P450 2C9,17.8 µM (inconclusive)
same,IC50,[2],> 20 µM (inactive)
same,EC50,[3],> 53 µM (inactive)
